Earlier results, collected in patent publication US7842677B2, “Synthetic ganglioside derivatives and compositions thereof” (Seneb Biosciences, Inc., priority 2001, dated 2010).

Test system: murine neuroblastoma cells

## ganglioside GM3
  growth of neuroblastoma cells (in words): inhibit the growth
